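Assay format: 96-well plates, 48-hour exposure. Abbreviation: GI50, concentration required for 50% inhibition of growth.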 Activity calls are given as the source filed them. No stated cut-off is given here; in the data, active = GI50 up to about 1.1 µM and inactive = higher.
Tests used:
Assay in all cases: NCI tumour cell line growth inhibition, 48 h
TK-10 = tested on: TK-10
OVCAR-4 = tested on: OVCAR-4
SF-539 = tested on: SF-539
Malme-3M = tested on: Malme-3M
SK-OV-3 = tested on: SK-OV-3
RXF 393 = tested on: RXF 393
SR = tested on: SR
LOX IMVI = tested on: LOX IMVI
CAKI-1 = tested on: CAKI-1
MCF7 = tested on: MCF7
HL-60 = tested on: HL-60
SNB-75 = tested on: SNB-75
CCRF-CEM = tested on: CCRF-CEM
HT-29 = tested on: HT-29
OVCAR-3 = tested on: OVCAR-3
SK-MEL-5 = tested on: SK-MEL-5
K562 = tested on: K562
T47D = tested on: T47D
DU-145 = tested on: DU-145
U-251 = tested on: U-251
COLO 205 = tested on: COLO 205
A549 = tested on: A549
NCI-H460 = tested on: NCI-H460
NCI/ADR-RES = tested on: NCI/ADR-RES
ACHN = tested on: ACHN
SF-295 = tested on: SF-295
PC-3 = tested on: PC-3
SK-MEL-28 = tested on: SK-MEL-28
IGROV-1 = tested on: IGROV-1
UO-31 = tested on: UO-31
HCT-116 = tested on: HCT-116
MOLT-4 = tested on: MOLT-4
SN12C = tested on: SN12C
MDA-N = tested on: MDA-N
A498 = tested on: A498
HCC 2998 = tested on: HCC 2998
SW-620 = tested on: SW-620
OVCAR-5 = tested on: OVCAR-5
HOP-92 = tested on: HOP-92
UACC-62 = tested on: UACC-62
MDA-MB-231 = tested on: MDA-MB-231
MDA-MB-435 = tested on: MDA-MB-435
NCI-H226 = tested on: NCI-H226
HOP-62 = tested on: HOP-62
Hs-578T = tested on: Hs-578T
UACC-257 = tested on: UACC-257
RPMI-8226 = tested on: RPMI-8226
KM12 = tested on: KM12
OVCAR-8 = tested on: OVCAR-8
NCI-H23 = tested on: NCI-H23
786-0 = tested on: 786-0
EKVX = tested on: EKVX
SF-268 = tested on: SF-268
HCT-15 = tested on: HCT-15
NCI-H522 = tested on: NCI-H522
M14 = tested on: M14
BT-549 = tested on: BT-549
SK-MEL-2 = tested on: SK-MEL-2
SNB-19 = tested on: SNB-19

COC(=O)c1ccccc1/C=C1/Cc2ccccc2C1=O
GI50 (TK-10): > 100 µM (inactive) | GI50 (OVCAR-4): 34.4 µM (inactive) | GI50 (SF-539): > 100 µM (inactive) | GI50 (Malme-3M): 50.5 µM (inactive) | GI50 (SK-OV-3): > 100 µM (inactive) | GI50 (RXF 393): 54.6 µM (inactive) | GI50 (SR): 22.2 µM (inactive) | GI50 (LOX IMVI): 17.8 µM (inactive) | GI50 (CAKI-1): 25.8 µM (inactive) | GI50 (MCF7): 11.5 µM (inactive) | GI50 (HL-60): 30.1 µM (inactive) | GI50 (SNB-75): > 100 µM (inactive) | GI50 (CCRF-CEM): 31.3 µM (inactive) | GI50 (HT-29): 37.9 µM (inactive) | GI50 (OVCAR-3): 23.8 µM (inactive) | GI50 (SK-MEL-5): 18.6 µM (inactive) | GI50 (K562): 32.7 µM (inactive) | GI50 (T47D): 19.6 µM (inactive) | GI50 (DU-145): > 100 µM (inactive) | GI50 (U-251): 29.7 µM (inactive) | GI50 (COLO 205): 30 µM (inactive) | GI50 (A549): 50.7 µM (inactive) | GI50 (NCI-H460): > 100 µM (inactive) | GI50 (NCI/ADR-RES): 36.5 µM (inactive) | GI50 (ACHN): 39.2 µM (inactive) | GI50 (SF-295): 44.1 µM (inactive) | GI50 (PC-3): 48.2 µM (inactive) | GI50 (SK-MEL-28): 65.5 µM (inactive) | GI50 (IGROV-1): 27.3 µM (inactive) | GI50 (UO-31): 50.6 µM (inactive) | GI50 (HCT-116): 24.4 µM (inactive) | GI50 (MOLT-4): 24.4 µM (inactive) | GI50 (SN12C): 17.4 µM (inactive) | GI50 (MDA-N): 55.8 µM (inactive) | GI50 (A498): > 100 µM (inactive) | GI50 (HCC 2998): > 100 µM (inactive) | GI50 (SW-620): 28.3 µM (inactive) | GI50 (OVCAR-5): 33.3 µM (inactive) | GI50 (HOP-92): 61.1 µM (inactive) | GI50 (UACC-62): 36.1 µM (inactive) | GI50 (MDA-MB-231): 44.7 µM (inactive) | GI50 (MDA-MB-435): > 100 µM (inactive) | GI50 (NCI-H226): 63.8 µM (inactive) | GI50 (HOP-62): 98.4 µM (inactive) | GI50 (Hs-578T): 30.9 µM (inactive) | GI50 (UACC-257): 24 µM (inactive) | GI50 (RPMI-8226): 22 µM (inactive) | GI50 (KM12): 25.2 µM (inactive) | GI50 (OVCAR-8): 47.1 µM (inactive) | GI50 (NCI-H23): 68.4 µM (inactive) | GI50 (786-0): > 10 µM (inactive) | GI50 (EKVX): 63.2 µM (inactive) | GI50 (SF-268): > 100 µM (inactive) | GI50 (HCT-15): 23.4 µM | GI50 (NCI-H522): 31.7 µM (inactive)

CCOC(=O)c1cc(-c2ccc(Cl)cc2)c([N+](=O)[O-])n1C
GI50 (TK-10): > 10 µM (inactive) | GI50 (OVCAR-4): > 10 µM (inactive) | GI50 (SF-539): > 10 µM (inactive) | GI50 (Malme-3M): > 10 µM (inactive) | GI50 (SK-OV-3): > 10 µM (inactive) | GI50 (SR): 5.08 µM (inactive) | GI50 (HL-60): > 10 µM (inactive) | GI50 (M14): > 10 µM (inactive) | GI50 (CCRF-CEM): > 10 µM (inactive) | GI50 (HT-29): > 10 µM (inactive) | GI50 (OVCAR-3): > 10 µM (inactive) | GI50 (K562): > 10 µM (inactive) | GI50 (T47D): 2.05 µM (inactive) | GI50 (DU-145): > 10 µM (inactive) | GI50 (U-251): > 10 µM (inactive) | GI50 (A549): > 10 µM (inactive) | GI50 (NCI-H460): > 10 µM (inactive) | GI50 (ACHN): > 10 µM (inactive) | GI50 (SF-295): > 10 µM (inactive) | GI50 (IGROV-1): > 10 µM (inactive) | GI50 (UO-31): 5.48 µM (inactive) | GI50 (HCT-116): > 10 µM (inactive) | GI50 (MOLT-4): > 10 µM (inactive) | GI50 (SN12C): > 10 µM (inactive) | GI50 (MDA-N): > 10 µM (inactive) | GI50 (HCC 2998): > 10 µM (inactive) | GI50 (OVCAR-5): > 10 µM (inactive) | GI50 (HOP-92): > 10 µM (inactive) | GI50 (BT-549): > 10 µM (inactive) | GI50 (MDA-MB-231): 0.08 µM (active) | GI50 (SK-MEL-2): > 10 µM (inactive) | GI50 (MDA-MB-435): > 10 µM (inactive) | GI50 (NCI-H226): > 10 µM (inactive) | GI50 (Hs-578T): > 10 µM (inactive) | GI50 (UACC-257): > 10 µM (inactive) | GI50 (KM12): > 10 µM (inactive) | GI50 (SNB-19): > 10 µM (inactive) | GI50 (OVCAR-8): > 10 µM (inactive) | GI50 (NCI-H23): > 10 µM (inactive) | GI50 (786-0): > 10 µM (inactive) | GI50 (EKVX): > 10 µM (inactive) | GI50 (SF-268): > 10 µM (inactive) | GI50 (HCT-15): > 10 µM | GI50 (NCI-H522): > 10 µM (inactive)

CC1=C(CO)C(=O)O[C@@H]([C@@H](CO)[C@H]2CCC3C4C[C@@H](O)[C@@]5(O)CC=CC(=O)[C@]5(C)C4CC[C@@]32C)C1 (some centres undefined)
GI50 (TK-10): > 100 µM (inactive) | GI50 (OVCAR-4): 91.8 µM (inactive) | GI50 (SF-539): 53.8 µM (inactive) | GI50 (Malme-3M): 94 µM (inactive) | GI50 (SK-OV-3): > 100 µM (inactive) | GI50 (RXF 393): 15.2 µM (inactive) | GI50 (SR): 34.9 µM (inactive) | GI50 (LOX IMVI): 38.5 µM (inactive) | GI50 (CAKI-1): > 100 µM (inactive) | GI50 (MCF7): 50 µM (inactive) | GI50 (HL-60): 31.2 µM (inactive) | GI50 (M14): 53.7 µM (inactive) | GI50 (SNB-75): 35.6 µM (inactive) | GI50 (CCRF-CEM): 34.1 µM (inactive) | GI50 (HT-29): 44.2 µM (inactive) | GI50 (OVCAR-3): 22 µM (inactive) | GI50 (SK-MEL-5): 51.4 µM (inactive) | GI50 (K562): 31.8 µM (inactive) | GI50 (T47D): 86.3 µM (inactive) | GI50 (DU-145): > 100 µM (inactive) | GI50 (COLO 205): 30 µM (inactive) | GI50 (A549): > 100 µM (inactive) | GI50 (NCI/ADR-RES): > 100 µM (inactive) | GI50 (ACHN): 36.4 µM (inactive) | GI50 (SF-295): > 100 µM (inactive) | GI50 (IGROV-1): > 100 µM (inactive) | GI50 (UO-31): 24.4 µM (inactive) | GI50 (HCT-116): 37.2 µM (inactive) | GI50 (MOLT-4): 36.3 µM (inactive) | GI50 (SN12C): 55.2 µM (inactive) | GI50 (MDA-N): 71.9 µM (inactive) | GI50 (A498): 63.4 µM (inactive) | GI50 (HCC 2998): 29.2 µM (inactive) | GI50 (SW-620): 29 µM (inactive) | GI50 (OVCAR-5): 83.9 µM (inactive) | GI50 (HOP-92): 71 µM (inactive) | GI50 (BT-549): 26.4 µM (inactive) | GI50 (UACC-62): 47 µM (inactive) | GI50 (MDA-MB-231): 59.2 µM (inactive) | GI50 (SK-MEL-2): 53.6 µM (inactive) | GI50 (MDA-MB-435): 38.5 µM (inactive) | GI50 (NCI-H226): > 100 µM (inactive) | GI50 (HOP-62): 23.5 µM (inactive) | GI50 (Hs-578T): 59.2 µM (inactive) | GI50 (UACC-257): 58.6 µM (inactive) | GI50 (RPMI-8226): 34.3 µM (inactive) | GI50 (KM12): 43.3 µM (inactive) | GI50 (SNB-19): > 100 µM (inactive) | GI50 (OVCAR-8): 73.1 µM (inactive) | GI50 (NCI-H23): 67.9 µM (inactive) | GI50 (786-0): 28.6 µM (inactive) | GI50 (EKVX): > 100 µM (inactive) | GI50 (SF-268): 43.3 µM (inactive) | GI50 (HCT-15): 32 µM | GI50 (NCI-H522): 39.2 µM (inactive)

— ChEMBL document CHEMBL1201862, “PubChem BioAssay data set” (2004)
